Test results taken from the NIST ThermoML archive (doi:10.1016/j.jct.2012.01.008).
± gives the expanded uncertainty stated by the source.

Details: Liquid, Vibrating tube method

Compound | mass density (298.15 K, 100 kPa) [kg/m3] | mass density (298.15 K, 10000 kPa) [kg/m3] | mass density (298.15 K, 15000 kPa) [kg/m3] | mass density (298.15 K, 20000 kPa) [kg/m3] | mass density (298.15 K, 25000 kPa) [kg/m3] | mass density (298.15 K, 30000 kPa) [kg/m3] | mass density (298.15 K, 35000 kPa) [kg/m3] | mass density (298.15 K, 40000 kPa) [kg/m3] | mass density (298.15 K, 45000 kPa) [kg/m3] | mass density (298.15 K, 50000 kPa) [kg/m3] | mass density (318.15 K, 100 kPa) [kg/m3] | mass density (318.15 K, 10000 kPa) [kg/m3] | mass density (318.15 K, 15000 kPa) [kg/m3] | mass density (318.15 K, 20000 kPa) [kg/m3] | mass density (318.15 K, 25000 kPa) [kg/m3] | mass density (318.15 K, 30000 kPa) [kg/m3] | mass density (318.15 K, 35000 kPa) [kg/m3] | mass density (318.15 K, 40000 kPa) [kg/m3] | mass density (318.15 K, 45000 kPa) [kg/m3] | mass density (318.15 K, 50000 kPa) [kg/m3] | further results
CCC[N+]1(C)CCCCC1.O=S(=O)([N-]S(=O)(=O)C(F)(F)F)C(F)(F)F | 1408.9 ± 0.6 | 1415.4 ± 0.8 | 1418.7 ± 0.8 | 1421.9 ± 0.9 | 1424.8 ± 1 | 1427.7 ± 1.1 | 1430.4 ± 1.2 | 1433.2 ± 1.3 | 1436.1 ± 1.4 | 1438.8 ± 1.5 | 1392.1 ± 0.6 | 1398.9 ± 0.7 | 1402.4 ± 0.8 | 1405.4 ± 0.9 | 1408.6 ± 1 | 1411.8 ± 1.1 | 1414.7 ± 1.2 | 1417.6 ± 1.2 | 1420.5 ± 1.3 | 1423.3 ± 1.4 | mass density (348.15 K, 100 kPa): 1366.3 ± 0.6 kg/m3; mass density (348.15 K, 10000 kPa): 1373.5 ± 0.7 kg/m3; mass density (348.15 K, 15000 kPa): 1377.2 ± 0.8 kg/m3; mass density (348.15 K, 20000 kPa): 1380.8 ± 0.9 kg/m3; mass density (348.15 K, 25000 kPa): 1384.1 ± 0.9 kg/m3; mass density (348.15 K, 30000 kPa): 1387.6 ± 1 kg/m3; mass density (348.15 K, 35000 kPa): 1390.7 ± 1.1 kg/m3; mass density (348.15 K, 40000 kPa): 1393.8 ± 1.2 kg/m3; mass density (348.15 K, 45000 kPa): 1397 ± 1.3 kg/m3; mass density (348.15 K, 50000 kPa): 1399.9 ± 1.4 kg/m3
CC(=O)c1ccccc1 [acetophenone] | 1023.4 ± 0.3 | 1029 ± 0.3 | 1031.7 ± 0.3 | 1034.3 ± 0.3 | 1036.8 ± 0.3 | 1039.3 ± 0.4 | 1041.8 ± 0.4 | 1044.4 ± 0.4 | 1046.7 ± 0.4 | 1049 ± 0.4 | 1005.9 ± 0.3 | 1012.2 ± 0.3 | 1015.2 ± 0.3 | 1018.1 ± 0.3 | 1020.9 ± 0.3 | 1023.6 ± 0.3 | 1026.4 ± 0.3 | 1028.8 ± 0.4 | 1031.5 ± 0.4 | 1034 ± 0.4 | mass density (348.15 K, 100 kPa): 979.6 ± 0.3 kg/m3; mass density (348.15 K, 10000 kPa): 987.1 ± 0.3 kg/m3; mass density (348.15 K, 15000 kPa): 990.5 ± 0.3 kg/m3; mass density (348.15 K, 20000 kPa): 993.6 ± 0.3 kg/m3; mass density (348.15 K, 25000 kPa): 996.9 ± 0.3 kg/m3; mass density (348.15 K, 30000 kPa): 1000.1 ± 0.3 kg/m3; mass density (348.15 K, 35000 kPa): 1003.1 ± 0.3 kg/m3; mass density (348.15 K, 40000 kPa): 1006.1 ± 0.3 kg/m3; mass density (348.15 K, 45000 kPa): 1009 ± 0.3 kg/m3; mass density (348.15 K, 50000 kPa): 1011.7 ± 0.3 kg/m3
COc1ccccc1 [anisole] | 989.2 ± 0.3 | 995.6 ± 0.3 | 998.5 ± 0.3 | 1001.4 ± 0.3 | 1004.1 ± 0.3 | 1006.9 ± 0.3 | 1009.7 ± 0.3 | 1012.5 ± 0.3 | 1015.2 ± 0.3 | 1017.5 ± 0.3 | 969.9 ± 0.3 | 977.3 ± 0.3 | 980.4 ± 0.3 | 983.6 ± 0.3 | 986.9 ± 0.3 | 989.8 ± 0.3 | 992.9 ± 0.3 | 995.7 ± 0.3 | 998.6 ± 0.3 | 1001.5 ± 0.3 | mass density (348.15 K, 100 kPa): 941.3 ± 0.3 kg/m3; mass density (348.15 K, 10000 kPa): 949.8 ± 0.3 kg/m3; mass density (348.15 K, 15000 kPa): 953.5 ± 0.3 kg/m3; mass density (348.15 K, 20000 kPa): 957.3 ± 0.3 kg/m3; mass density (348.15 K, 25000 kPa): 961.1 ± 0.3 kg/m3; mass density (348.15 K, 30000 kPa): 964.5 ± 0.3 kg/m3; mass density (348.15 K, 35000 kPa): 967.9 ± 0.3 kg/m3; mass density (348.15 K, 40000 kPa): 971 ± 0.3 kg/m3; mass density (348.15 K, 45000 kPa): 974.5 ± 0.3 kg/m3; mass density (348.15 K, 50000 kPa): 977.8 ± 0.3 kg/m3
